Data taken from US9861616B2, “Methods for treating respiratory diseases and formulations therefor” (priority 2013, dated 2018).
Values after ≈ are worked out from the molar mass of the structure shown. Where two headings read alike, the source gives them in different places.

What was measured:
[1] = system: P. aeruginosa PAO1; test: MIC by microdilution with PaβN or EGTA, wild-type strain; type: cell-based; conditions: Pseudomonas aeruginosa
Method: (§1) MICs of 36 clinical and laboratory strains of PA with known efflux phenotype are measured by microdilution in cation-adjusted Muller-Hinton broth (CA-MHB) or in RPMI medium (commonly used in eukaryotic cell culture). Phe-Arg-β-naphthylamide (PaβN, 50 mg/L) and EGTA 5 mM are used to inhibit efflux pumps and alter OM integrity, respectively. P. aeruginosa strain ATCC PAO1 is used as reference. PA12 is a clinical strain overexpressing the 4 main efflux systems (MexAB, MexCD, MexEF, MexXY), PA403 is a laboratory strain deleted in the genes coding for the 4 efflux systems. A series of reference strains or of clinical isolates for which the expression of genes coding for efflux pumps is known is also used for MICs determinations. MICs are measured by microdilution in MH broth or in RPMI medium (used for eukaryotic cells culture) supplemented with 10% of fetal calf serum, or in MH broth supplemented by increasing amounts of serum. EGTA (5 mM) was used as a chelating agent (disrupting outer membrane integrity) and PaβN (50 mg/L) as an unspecific efflux inhibitor.

[2] = system: P. aeruginosa PA12; test: MIC by microdilution with PaβN or EGTA, clinical isolate overexpressing efflux pumps; type: cell-based; conditions: Pseudomonas aeruginosa
Method: as §1

[3] = system: MRSA strains from CF patients; test: Microdilution MICs against 40 MRSA strains from CF patients; type: cell-based, S. aureus; conditions: Staphylococcus aureus, 40 MRSA strains from CF patients; for MIC50: read-out: MIC50; for MIC90: read-out: MIC90
Method: Two strains each of mucoid P. aeruginosa (both pyocyanin positive) and […] MRSA (only one strain with gold colonies) isolated from patients at a CF clinic were tested. Additionally, 2 B. cepacia strains were acquired, from Hershey Medical Center. All strains were identified by standard methods. Only one strain per patient was tested. MLVA was done on all strains to examine clonality, and confirmed that examination is not taking place on only one or a few clones. Strains will be stored in skim milk at −70° C. until use.
Original MICs of each strain to CEM-101 and other comparators were tested by CLSI microdilution methodology. Trays were obtained from Trek, Inc., Cleveland, Ohio. Time-kill macrobroth MIC dilution by CLSI was performed for all synergy testing.

[4] = system: IL-8 (CXCL8) release; test: LPS-induced IL-8 (CXCL8) release in PMA-differentiated U937 cells (ELISA); type: cell-based, human
Method: Effects of macrolides on lipopolysaccharide (LPS)-induced CXCL8 release in PMA-differentiated U937 cells. […] LPS-induced CXCL8 release was evaluated by ELISA. Values represent means of three experiments±SEM. ^##p<0.01 (vs. non-treatment control), *p<0.05, **p<0.01 (vs. treatment with LPS only).
The human monocytic cell line U937 was obtained from the American Type Culture Collection (ATCC, Rockville, Md.). PBMCs from COPD patients were obtained from Brompton hospital and separated by AccuSPIN (Sigma-Aldrich). Cells were cultured in complete growth medium (RPMI 1640) (Sigma-Aldrich) supplemented with 10% fetal bovine serum (FBS) and 1% L-glutamine at 37° C. in a humidified atmosphere with 5% CO2. U937 cells were differentiated into adherent macrophage-like morphology by exposure to PMA (50 ng/mL) for 48 hrs in complete growth medium. Cell viability was assessed microscopically by trypan blue staining. Cell toxicity was determined by MTT assay as needed. This study was approved by the ethics committee of the Royal Brompton Hospitals, and all subjects gave written informed consent.
TNFα and IL-8 concentrations in the supernatant of cell cultures were determined by sandwich ELISA according to the manufacturer's instructions (R&D Systems Europe, Abingdon, UK).
The results were expressed as the mean±SEM. Comparisons of data in two groups were performed using the Student's t test or the Wilcoxon signed rank test. Multiple comparisons were made by one-way ANOVA with post hoc test (Dunnett's) as appropriate. The difference was considered significant at p<0.05. IC50 values (50% inhibitory concentration) for macrolides for production of cytokines or MMP9 were calculated using Prism 4.0 (GraphPad Software Inc., San Diego, Calif.).

[5] = system: P. aeruginosa PA403; test: MIC by microdilution with PaβN or EGTA, efflux-deleted laboratory strain; type: cell-based; conditions: Pseudomonas aeruginosa, read-out: MIC
Method: as §1, with “The compounds described herein are poor substrates of efflux pumps expressed in P. aeruginosa (PA). MICs of” for “MICs of”

[6] = PAO1, PAO1, CA-MHB, EGTA 5 mM, read-out: MIC
[7] = PAO1, PAO1, CA-MHB, PaβN 50 mg/L, read-out: MIC
[8] = PAO1, PAO1, CA-MHB, control conditions (CT)
[9] = PAO1, PAO1, RPMI, EGTA 5 mM, read-out: MIC
[10] = PAO1, PAO1, RPMI, PaβN 50 mg/L, read-out: MIC
[11] = PAO1, PAO1, RPMI, control conditions (CT), read-out: MIC
[12] = PA12, PA12, CA-MHB, PaβN 50 mg/L
[13] = PA12, PA12, CA-MHB, control conditions (CT)
[14] = PA12, PA12, RPMI, control conditions (CT)
[15] = Homo sapiens, U-937, U937 cells, at 333 μM, read-out: IC50, LPS-induced IL-8 release: NE at 333 μM
[16] = PA403, P403, CA-MHB, control conditions (CT)
[17] = PA403, P403, RPMI, PaβN 50 mg/L
[18] = PA403, P403, RPMI, control conditions (CT)

Row | Compound | MIC [1, 6] | MIC [1, 7] | MIC [1, 8] | MIC [1, 9] | MIC [1, 10] | MIC [1, 11] | MIC ([2]; PA12, PA12, CA-MHB, EGTA 5 mM) | MIC [2, 12] | MIC [2, 13] | MIC ([2]; PA12, PA12, RPMI, EGTA 5 mM) | MIC ([2]; PA12, PA12, RPMI, PaβN 50 mg/L) | MIC [2, 14] | MIC50 [3] | MIC90 [3] | effect on IL-8 production ([4]; 33 to 333 μM (FIG. 4)) | MIC ([5]; PA403, P403, CA-MHB, EGTA 5 mM) | MIC [5, 16] | MIC ([5]; PA403, P403, RPMI, EGTA 5 mM) | MIC [5, 17] | MIC [5, 18] | other results
1 | CC[C@H]1OC(=O)[C@H](C)[C@@H](O[C@H]2C[C@@](C)(OC)[C@@H](O)[C@H](C)O2)[C@H](C)[C@@H](O[C@@H]2O[C@H](C)C[C@H](N(C)C)[C@H]2O)[C@](C)(O)C[C@@H](C)CN(C)[C@H](C)[C@@H](O)[C@]1(C)O [AZM, azithromycin] | 8 µg/mL (≈ 10.7 µM) | 4 µg/mL (≈ 5.34 µM) | 128 µg/mL (≈ 171 µM) | 0.25 µg/mL (≈ 0.334 µM) | 4 µg/mL (≈ 5.34 µM) | 2 µg/mL (≈ 2.67 µM) | 256 µg/mL (≈ 342 µM) | 2 µg/mL (≈ 2.67 µM) | 256 µg/mL (≈ 342 µM) | 0.5 µg/mL (≈ 0.668 µM) | 2 µg/mL (≈ 2.67 µM) | 2 µg/mL (≈ 2.67 µM) | ≥ 32 µg/mL | ≥ 32 µg/mL | did not inhibit | – | – | – | – | – | IC50 [4, 15]: > 333 µM
2 | CC[C@H]1OC(=O)[C@H](C)C(=O)[C@H](C)[C@@H](O[C@@H]2O[C@H](C)C[C@H](N(C)C)[C@H]2O)[C@](C)(OC)C[C@@H](C)C(=O)[C@H](C)[C@H]2N(CCCCn3cnc(-c4cccnc4)c3)C(=O)O[C@]12C [TEL, telithromycin] | 32 µg/mL (≈ 39.4 µM) | 4 µg/mL (≈ 4.93 µM) | 128 µg/mL (≈ 158 µM) | 1 µg/mL (≈ 1.23 µM) | 4 µg/mL (≈ 4.93 µM) | 2 µg/mL (≈ 2.46 µM) | 32 µg/mL (≈ 39.4 µM) | 4 µg/mL (≈ 4.93 µM) | 128 µg/mL (≈ 158 µM) | 1 µg/mL (≈ 1.23 µM) | 4 µg/mL (≈ 4.93 µM) | 4 µg/mL (≈ 4.93 µM) | – | – | – | 2 µg/mL (≈ 2.46 µM) | 4 µg/mL (≈ 4.93 µM) | 0.06 µg/mL (≈ 0.0739 µM) | 1 µg/mL (≈ 1.23 µM) | 0.5 µg/mL (≈ 0.616 µM) | IC50 ([4]; Homo sapiens, U-937, read-out: IC50, LPS-induced IL-8 release: NE at 100 μM, U937 cells, at 100 μM): > 100 µM; effect on CXCL8 production ([4]; at 100 μM): did not inhibit
3 | CC[C@H]1OC(=O)[C@H](C)[C@@H](O[C@H]2C[C@@](C)(OC)[C@@H](O)[C@H](C)O2)[C@H](C)[C@@H](O[C@@H]2O[C@H](C)C[C@H](N(C)C)[C@H]2O)[C@](C)(OC)C[C@@H](C)C(=O)[C@H](C)[C@@H](O)[C@]1(C)O [CLR, clarithromycin] | – | 8 µg/mL (≈ 10.7 µM) | 512 µg/mL (≈ 685 µM) | 32 µg/mL (≈ 42.8 µM) | 4 µg/mL (≈ 5.35 µM) | 32 µg/mL (≈ 42.8 µM) | – | 16 µg/mL (≈ 21.4 µM) | 512 µg/mL (≈ 685 µM) | 2 µg/mL (≈ 2.67 µM) | 16 µg/mL (≈ 21.4 µM) | 16 µg/mL (≈ 21.4 µM) | ≥ 32 µg/mL | ≥ 32 µg/mL | – | 32 µg/mL (≈ 42.8 µM) | 16 µg/mL (≈ 21.4 µM) | 0.5 µg/mL (≈ 0.668 µM) | 4 µg/mL (≈ 5.35 µM) | 4 µg/mL (≈ 5.35 µM) | IC50 ([4]; PMA-differentiated U937 cells, read-out: IC50, LPS-induced IL-8 (CXCL8) release): 506 µM; effect on IL-8 production ([4]; at a higher concentration (333 μM)): modest effects
4 | CC[C@H]1OC(=O)[C@H](C)[C@@H](O[C@H]2C[C@@](C)(OC)[C@@H](O)[C@H](C)O2)[C@H](C)[C@@H](O[C@@H]2O[C@H](C)C[C@H](N(C)C)[C@H]2O)[C@](C)(O)C[C@@H](C)C(=O)[C@H](C)[C@@H](O)[C@]1(C)O [ERY, erythromycin] | – | 16 µg/mL (≈ 21.8 µM) | 512 µg/mL (≈ 698 µM) | 32 µg/mL (≈ 43.6 µM) | 32 µg/mL (≈ 43.6 µM) | 32 µg/mL (≈ 43.6 µM) | 512 µg/mL (≈ 698 µM) | 32 µg/mL (≈ 43.6 µM) | 512 µg/mL (≈ 698 µM) | 2 µg/mL (≈ 2.73 µM) | 32 µg/mL (≈ 43.6 µM) | 32 µg/mL (≈ 43.6 µM) | – | – | did not inhibit | 16 µg/mL (≈ 21.8 µM) | 16 µg/mL (≈ 21.8 µM) | 0.5 µg/mL (≈ 0.681 µM) | 4 µg/mL (≈ 5.45 µM) | 4 µg/mL (≈ 5.45 µM) | IC50 [4, 15]: > 333 µM
